Earlier results, collected in EP4062897A1, “HAIR CARE COMPOSITION AND PREPARATION METHOD THEREFOR” (BioRight Worldwide Company Limited, priority 2019, dated 2021).

Conditions: in aqueous solution, typical value

For `NC(=O)c1ccc[n+]([C@@H]2O[C@H](COP(=O)([O-])O)[C@@H](O)[C@H]2O)c1` [nicotinamide mononucleotide, Nicotinamide mononucleotide], the half-life is given as 14 days.
